# Reference: patent US10125129B2 (priority 2016, dated 2018)
# “Also recorded” adds a separate entry of the source. Like-named read-outs stand apart in the source and are kept apart here.
# Key:
# mice [1] = assay: Hot water tail-flick cumulative dose-response (s.c.); format: in vivo; conditions: Mus musculus, sc, 0.5 h, cumulative s.c. doses 1-30 mg/kg, latency 30 min after each dose
# Sprague Dawley rats = assay: Conditioned place preference assay; conditions: i.p.
# mice [2] = assay: Hot water tail-flick tolerance evaluation, daily dosing; format: in vivo; conditions: for antinociceptive effects over days of daily administration (tolerance): 7 mg/kg i.p. daily, days 1, 3, 5, 6, mice; for antinociceptive effects on day 6 challenge after daily vehicle: daily vehicle treated mice challenged on day 6
# mice [3] = assay: Accelerating rotarod performance assay; conditions: 10 mg/kg i.p.; compared to kurkinorin and vehicle
# μ opioid receptor (MOR) = molecular target: T1, μ opioid receptor (MOR) (Homo sapiens, UniProt P35372); assay: cell-based; format: cell-based
# T1 construct: expressed in transfected cells
# mice [4] = assay: Centrally mediated antinociceptive effects (tail-flick), i.p. doses, 10 s cutoff; format: in vivo
# κ opioid receptor (KOR) = molecular target: T2, κ opioid receptor (KOR) (Homo sapiens, UniProt P41145); assay: cell-based; format: cell-based
# T2 construct: expressed in transfected cells
# T2 sequence (P41145 whole entry): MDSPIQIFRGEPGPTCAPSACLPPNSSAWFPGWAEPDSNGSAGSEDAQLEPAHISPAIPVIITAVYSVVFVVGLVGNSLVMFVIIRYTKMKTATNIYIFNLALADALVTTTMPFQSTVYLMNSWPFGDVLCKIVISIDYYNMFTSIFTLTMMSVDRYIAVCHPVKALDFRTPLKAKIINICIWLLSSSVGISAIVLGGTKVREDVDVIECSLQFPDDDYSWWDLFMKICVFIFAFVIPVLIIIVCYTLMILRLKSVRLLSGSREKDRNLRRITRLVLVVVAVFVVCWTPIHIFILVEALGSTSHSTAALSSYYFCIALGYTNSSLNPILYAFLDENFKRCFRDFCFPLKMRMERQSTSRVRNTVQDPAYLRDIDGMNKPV
# T1 sequence (P35372 whole entry): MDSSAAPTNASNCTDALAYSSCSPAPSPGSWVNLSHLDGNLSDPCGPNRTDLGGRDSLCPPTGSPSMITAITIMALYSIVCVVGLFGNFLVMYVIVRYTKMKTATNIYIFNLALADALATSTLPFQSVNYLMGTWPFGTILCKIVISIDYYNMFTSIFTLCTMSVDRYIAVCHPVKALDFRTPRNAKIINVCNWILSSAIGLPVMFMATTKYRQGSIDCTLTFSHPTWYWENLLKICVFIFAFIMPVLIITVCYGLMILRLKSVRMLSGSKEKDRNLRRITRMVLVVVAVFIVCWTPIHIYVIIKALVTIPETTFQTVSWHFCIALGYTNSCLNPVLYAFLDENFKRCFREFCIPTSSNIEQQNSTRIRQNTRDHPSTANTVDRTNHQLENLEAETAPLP
structure (smiles),measurement,setting,value
"CN1CC[C@]23c4c5ccc(O)c4O[C@H]2[C@@H](O)C=C[C@H]3[C@H]1C5 [Morphine, morphine, reference compound]",ED50,mice [1],9.86 mg/kg
same,conditioned place preference,Sprague Dawley rats; 5 mg/kg,significant place preference
same,conditioned place preference,Sprague Dawley rats; 10 mg/kg,significant place preference
same,antinociceptive effects over days of daily administration (tolerance),mice [2],"significant antinociceptive effects on days 1, 3, and 5 but not day 6"
same,antinociceptive effects on day 6 challenge after daily vehicle,mice [2],antinociceptive effects similar to day 1
same,motor coordination (rotarod),mice [3],significant decrease in motor coordination
"COC(=O)[C@@H]1C[C@H](OC(=O)c2ccccc2)C(=O)[C@H]2[C@@]1(C)CC[C@H]1C(=O)O[C@H](c3ccoc3)C[C@]21C [Compound 2, herkinorin, reference compound]",Selectivity μ/κ,μ opioid receptor (MOR),4.4
same,selectivity for the MOR over KOR,μ opioid receptor (MOR),4.4 fold
same,EC50,μ opioid receptor (MOR); EC50 ± SEM μ,39 ± 4 nM
same,EC50,μ opioid receptor (MOR); Series 1 EC50,42 ± 4 nM
same,conditioned place preference,Sprague Dawley rats; 5 mg/kg,Neither kurkinorin (5) nor herkinorin (2) were significantly different to vehicle
same,antinociceptive effects,"mice [4]; 1, 5, and 10 mg/kg, i.p., 10 s cutoff",no significant antinociceptive effects
same,EC50,κ opioid receptor (KOR); read-out: EC50 ± SEM κ,170 ± 30 nM
"COC(=O)[C@@H]1C=C(OC(=O)c2ccccc2)C(=O)[C@H]2[C@@]1(C)CC[C@H]1C(=O)O[C@H](c3ccoc3)C[C@]21C [Compound 5, (2S,4aR,6aR,6aR,10aR,10bR)-Methyl 2-(furan-3-yl)-9-((benzoyl)oxy)-6a,10b-dimethyl-4,10-dioxo-2,4,4a,5,6,6a,7,10,10a,10b-decahydro-1H-benzo[f]isochromene-7-carboxylate]",ED50,mice [1],9.72 mg/kg
same,conditioned place preference,Sprague Dawley rats; 5 mg/kg,Neither kurkinorin (5) nor herkinorin (2) were significantly different to vehicle
same,conditioned place preference,"Sprague Dawley rats; 10 mg/kg, listed as Kurkinorin",significant decrease in preference compared to morphine; also recorded: not significantly different form vehicle
same,antinociceptive effects,"mice [4]; 5 and 10 mg/kg i.p., similar to morphine at 10 mg/kg",significant antinociceptive effects
same,antinociceptive effects over days of daily administration (tolerance),mice [2],maintained antinociceptive efficacy from days 1-6
same,antinociceptive effects on day 6 challenge after daily vehicle,mice [2],antinociceptive effects similar to day 1
same,EC50,κ opioid receptor (KOR),> 10000 nM
same,activity at the KOR,κ opioid receptor (KOR),no activity
"COC(=O)[C@@H]1C=C(OC(=O)c2cccc(O)c2)C(=O)[C@H]2[C@@]1(C)CC[C@H]1C(=O)O[C@H](c3ccoc3)C[C@]21C [Table 3 Entry 2, (2S,4aR,6aR,7R,10aR,10bR)-Methyl 2-(furan-3-yl)-9-((3-hydroxybenzoyl)oxy)-6a,10b-dimethyl-4,10-dioxo-2,4,4a,5,6,6a,7,10,10a,10bdecahydro-1H-benzo[f]isochromene-7-carboxylate]",EC50,μ opioid receptor (MOR); EC50,1.3 ± 0.3 nM
same,melting point,,124 to 126 °C
